The kinase profiling compilation of Christmann-Franck et al. (2016)
Each block holds one molecule with its values, some of them ahead of it.

Key:
Assay in all cases: split-luciferase competition binding
[1] = target: AKT1 (human) (UniProt P31749); conditions: compound 10.0 µM
[2] = target: AKT2 (human) (UniProt P31751); conditions: compound 10.0 µM
[3] = target: AKT3 (human) (UniProt Q9Y243); conditions: compound 10.0 µM
[4] = target: AURKA (human) (UniProt O14965); conditions: compound 10.0 µM
[5] = target: AURKB (human) (UniProt Q96GD4); conditions: compound 10.0 µM
[6] = target: AURKC (human) (UniProt Q9UQB9); conditions: compound 10.0 µM
[7] = target: DMPK (human) (UniProt Q09013); conditions: compound 10.0 µM
[8] = target: PDPK1 (human) (UniProt O15530); conditions: compound 10.0 µM
[9] = target: PKN1 (human) (UniProt Q16512); conditions: compound 10.0 µM
[10] = system: PRKACA (mouse); conditions: compound 10.0 µM; accession and sequence are those of the human protein
[11] = target: PRKACB (human) (UniProt P22694); conditions: compound 10.0 µM
[12] = target: PRKCD (human) (UniProt Q05655); conditions: compound 10.0 µM
[13] = target: PRKCE (human) (UniProt Q02156); conditions: compound 10.0 µM
[14] = target: PRKCG (human) (UniProt P05129); conditions: compound 10.0 µM
[15] = target: PRKCH (human) (UniProt P24723); conditions: compound 10.0 µM
[16] = target: PRKCI (human) (UniProt P41743); conditions: compound 10.0 µM
[17] = target: PRKCQ (human) (UniProt Q04759); conditions: compound 10.0 µM
[18] = target: PRKX (human) (UniProt P51817); conditions: compound 10.0 µM
[19] = target: RPS6KA1 KD1 (human) (UniProt Q15418); conditions: compound 10.0 µM
[20] = target: RPS6KA2 KD1 (human) (UniProt Q15349); conditions: compound 10.0 µM
[21] = target: RPS6KA3 KD1 (human) (UniProt P51812); conditions: compound 10.0 µM
[22] = target: RPS6KA4 KD1 (human) (UniProt O75676); conditions: compound 10.0 µM
[23] = target: RPS6KA5 KD1 (human) (UniProt O75582); conditions: compound 10.0 µM
[24] = target: RPS6KA6 KD1 (human) (UniProt Q9UK32); conditions: compound 10.0 µM
[25] = target: SGK2 (human) (UniProt Q9HBY8); conditions: compound 10.0 µM
[26] = target: SGK3 (human) (UniProt Q96BR1); conditions: compound 10.0 µM
[27] = target: STK32B (human) (UniProt Q9NY57); conditions: compound 10.0 µM

PRKCI (human), sequence (P41743 whole entry, looked up): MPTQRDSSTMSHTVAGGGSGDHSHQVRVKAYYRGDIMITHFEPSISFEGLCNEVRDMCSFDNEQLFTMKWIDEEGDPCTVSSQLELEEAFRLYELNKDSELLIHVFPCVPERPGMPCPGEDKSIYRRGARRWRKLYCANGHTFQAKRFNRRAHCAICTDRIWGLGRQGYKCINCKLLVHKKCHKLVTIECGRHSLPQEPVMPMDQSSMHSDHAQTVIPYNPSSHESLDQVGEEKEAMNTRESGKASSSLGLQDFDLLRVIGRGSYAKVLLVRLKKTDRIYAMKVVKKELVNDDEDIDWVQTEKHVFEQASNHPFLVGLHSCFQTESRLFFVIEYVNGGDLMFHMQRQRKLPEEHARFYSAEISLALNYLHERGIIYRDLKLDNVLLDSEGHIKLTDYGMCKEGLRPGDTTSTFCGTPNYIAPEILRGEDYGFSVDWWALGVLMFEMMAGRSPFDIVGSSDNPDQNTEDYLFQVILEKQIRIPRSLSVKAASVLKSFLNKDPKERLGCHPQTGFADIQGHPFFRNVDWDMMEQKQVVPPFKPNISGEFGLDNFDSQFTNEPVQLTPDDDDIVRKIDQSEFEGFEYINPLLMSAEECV
AURKC (human), sequence (Q9UQB9 whole entry, looked up): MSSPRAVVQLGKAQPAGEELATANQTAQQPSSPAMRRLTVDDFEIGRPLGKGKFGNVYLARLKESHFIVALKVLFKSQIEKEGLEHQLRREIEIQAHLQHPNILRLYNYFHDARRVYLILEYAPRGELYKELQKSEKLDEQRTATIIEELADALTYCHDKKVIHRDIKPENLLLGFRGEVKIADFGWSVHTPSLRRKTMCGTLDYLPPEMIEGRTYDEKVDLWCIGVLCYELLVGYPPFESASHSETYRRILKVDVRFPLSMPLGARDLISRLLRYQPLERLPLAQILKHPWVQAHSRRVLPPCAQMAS
SGK3 (human), sequence (Q96BR1 whole entry, looked up): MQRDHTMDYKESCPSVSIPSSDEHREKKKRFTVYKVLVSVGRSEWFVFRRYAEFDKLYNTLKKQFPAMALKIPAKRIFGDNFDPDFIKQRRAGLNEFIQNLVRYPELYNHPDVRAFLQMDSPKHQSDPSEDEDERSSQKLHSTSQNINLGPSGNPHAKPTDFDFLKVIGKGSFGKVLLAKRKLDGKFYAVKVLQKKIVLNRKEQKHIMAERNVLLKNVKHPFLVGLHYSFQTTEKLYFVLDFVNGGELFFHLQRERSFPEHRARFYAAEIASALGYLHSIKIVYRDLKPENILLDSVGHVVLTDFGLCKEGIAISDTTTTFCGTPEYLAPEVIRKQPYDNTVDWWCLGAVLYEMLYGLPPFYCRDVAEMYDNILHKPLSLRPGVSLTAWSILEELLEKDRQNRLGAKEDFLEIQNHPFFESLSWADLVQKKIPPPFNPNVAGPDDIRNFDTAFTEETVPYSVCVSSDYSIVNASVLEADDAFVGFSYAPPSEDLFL
AKT3 (human), sequence (Q9Y243 whole entry, looked up): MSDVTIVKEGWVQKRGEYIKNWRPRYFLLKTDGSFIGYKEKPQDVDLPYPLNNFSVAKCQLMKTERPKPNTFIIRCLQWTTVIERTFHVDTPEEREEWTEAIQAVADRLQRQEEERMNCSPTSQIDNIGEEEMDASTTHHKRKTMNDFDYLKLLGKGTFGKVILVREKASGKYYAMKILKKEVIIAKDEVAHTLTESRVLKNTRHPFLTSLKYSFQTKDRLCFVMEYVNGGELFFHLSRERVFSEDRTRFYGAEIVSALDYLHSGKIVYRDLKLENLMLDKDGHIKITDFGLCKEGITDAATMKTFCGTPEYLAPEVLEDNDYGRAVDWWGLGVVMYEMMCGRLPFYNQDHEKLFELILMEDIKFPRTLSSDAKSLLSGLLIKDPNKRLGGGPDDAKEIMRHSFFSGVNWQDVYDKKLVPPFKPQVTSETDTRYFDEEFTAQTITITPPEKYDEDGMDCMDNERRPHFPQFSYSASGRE
RPS6KA5 KD1 (human), sequence (O75582 whole entry, looked up): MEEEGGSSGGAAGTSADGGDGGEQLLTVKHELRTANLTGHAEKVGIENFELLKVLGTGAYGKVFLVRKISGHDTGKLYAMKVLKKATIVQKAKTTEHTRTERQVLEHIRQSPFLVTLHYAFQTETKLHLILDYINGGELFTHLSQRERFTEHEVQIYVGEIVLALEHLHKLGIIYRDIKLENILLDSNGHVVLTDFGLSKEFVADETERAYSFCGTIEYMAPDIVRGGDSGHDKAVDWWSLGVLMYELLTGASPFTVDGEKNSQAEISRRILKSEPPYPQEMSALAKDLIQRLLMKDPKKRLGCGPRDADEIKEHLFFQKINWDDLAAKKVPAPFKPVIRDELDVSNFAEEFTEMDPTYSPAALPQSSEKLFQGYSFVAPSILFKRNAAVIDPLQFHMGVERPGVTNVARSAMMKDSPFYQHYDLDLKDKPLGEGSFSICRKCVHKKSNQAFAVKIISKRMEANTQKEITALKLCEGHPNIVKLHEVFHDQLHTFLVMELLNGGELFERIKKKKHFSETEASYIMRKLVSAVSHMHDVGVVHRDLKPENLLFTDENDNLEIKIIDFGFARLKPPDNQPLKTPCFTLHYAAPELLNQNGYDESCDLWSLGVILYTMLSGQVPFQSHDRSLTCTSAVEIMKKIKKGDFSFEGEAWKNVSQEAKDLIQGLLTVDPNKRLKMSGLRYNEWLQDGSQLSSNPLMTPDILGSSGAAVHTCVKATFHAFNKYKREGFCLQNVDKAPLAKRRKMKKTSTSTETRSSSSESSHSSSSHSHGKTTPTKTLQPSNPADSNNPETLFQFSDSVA
AKT2 (human), sequence (P31751 whole entry, looked up): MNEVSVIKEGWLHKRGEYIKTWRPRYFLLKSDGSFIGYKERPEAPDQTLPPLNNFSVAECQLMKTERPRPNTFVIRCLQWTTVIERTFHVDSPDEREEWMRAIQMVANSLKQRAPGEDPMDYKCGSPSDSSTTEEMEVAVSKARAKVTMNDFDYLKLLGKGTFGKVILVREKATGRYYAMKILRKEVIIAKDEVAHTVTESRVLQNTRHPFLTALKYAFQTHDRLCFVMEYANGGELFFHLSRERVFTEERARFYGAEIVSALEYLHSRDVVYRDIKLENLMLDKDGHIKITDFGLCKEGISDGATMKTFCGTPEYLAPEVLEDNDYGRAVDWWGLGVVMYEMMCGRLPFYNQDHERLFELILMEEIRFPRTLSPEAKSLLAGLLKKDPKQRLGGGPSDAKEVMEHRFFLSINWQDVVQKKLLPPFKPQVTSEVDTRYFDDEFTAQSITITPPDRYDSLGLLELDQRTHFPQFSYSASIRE
DMPK (human), sequence (Q09013 whole entry, looked up): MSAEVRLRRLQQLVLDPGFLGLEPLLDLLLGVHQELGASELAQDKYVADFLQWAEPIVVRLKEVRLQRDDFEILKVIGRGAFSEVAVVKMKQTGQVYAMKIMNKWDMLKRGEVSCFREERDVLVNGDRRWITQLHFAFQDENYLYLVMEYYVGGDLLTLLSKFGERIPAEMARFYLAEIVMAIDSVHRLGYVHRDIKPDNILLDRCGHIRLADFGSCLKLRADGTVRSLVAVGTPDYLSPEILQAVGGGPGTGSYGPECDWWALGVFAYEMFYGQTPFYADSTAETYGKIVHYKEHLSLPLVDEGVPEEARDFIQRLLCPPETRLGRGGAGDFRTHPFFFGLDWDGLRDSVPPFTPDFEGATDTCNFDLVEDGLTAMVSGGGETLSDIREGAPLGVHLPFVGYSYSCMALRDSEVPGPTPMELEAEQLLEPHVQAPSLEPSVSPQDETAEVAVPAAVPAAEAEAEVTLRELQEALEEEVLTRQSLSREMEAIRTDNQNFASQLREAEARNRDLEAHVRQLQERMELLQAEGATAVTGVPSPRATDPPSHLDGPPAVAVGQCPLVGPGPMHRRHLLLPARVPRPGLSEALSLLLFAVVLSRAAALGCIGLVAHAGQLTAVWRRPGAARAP
PRKCE (human), sequence (Q02156 whole entry, looked up): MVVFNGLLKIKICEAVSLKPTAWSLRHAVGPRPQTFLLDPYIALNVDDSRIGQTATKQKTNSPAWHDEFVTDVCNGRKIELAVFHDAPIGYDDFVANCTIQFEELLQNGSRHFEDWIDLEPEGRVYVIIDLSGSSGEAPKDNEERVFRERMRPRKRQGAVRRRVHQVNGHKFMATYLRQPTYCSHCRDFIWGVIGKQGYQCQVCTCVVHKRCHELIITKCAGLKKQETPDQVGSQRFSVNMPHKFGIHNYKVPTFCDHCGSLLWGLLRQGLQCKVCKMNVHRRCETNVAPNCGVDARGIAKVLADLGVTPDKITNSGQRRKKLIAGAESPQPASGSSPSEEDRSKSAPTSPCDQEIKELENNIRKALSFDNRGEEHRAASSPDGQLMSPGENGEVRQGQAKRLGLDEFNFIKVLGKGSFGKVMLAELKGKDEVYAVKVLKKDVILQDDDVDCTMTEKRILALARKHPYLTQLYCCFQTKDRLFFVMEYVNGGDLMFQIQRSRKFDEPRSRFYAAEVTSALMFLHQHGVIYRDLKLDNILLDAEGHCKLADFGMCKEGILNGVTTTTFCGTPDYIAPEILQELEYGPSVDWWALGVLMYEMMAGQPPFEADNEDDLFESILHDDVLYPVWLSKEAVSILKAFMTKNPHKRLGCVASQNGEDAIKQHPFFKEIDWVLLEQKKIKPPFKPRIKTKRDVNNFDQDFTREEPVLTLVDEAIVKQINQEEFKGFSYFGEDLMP
PRKX (human), sequence (P51817 whole entry, looked up): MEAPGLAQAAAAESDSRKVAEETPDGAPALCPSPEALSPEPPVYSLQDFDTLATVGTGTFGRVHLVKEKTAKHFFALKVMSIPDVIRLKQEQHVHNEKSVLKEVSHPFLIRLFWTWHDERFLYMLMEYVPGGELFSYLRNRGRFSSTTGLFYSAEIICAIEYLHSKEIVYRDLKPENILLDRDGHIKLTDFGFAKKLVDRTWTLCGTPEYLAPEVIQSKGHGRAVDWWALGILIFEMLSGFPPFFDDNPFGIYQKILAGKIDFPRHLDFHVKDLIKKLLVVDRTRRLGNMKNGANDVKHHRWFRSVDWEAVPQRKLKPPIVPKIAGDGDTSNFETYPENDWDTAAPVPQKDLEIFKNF

SMILES: Cn1cc(C2=C(c3ccc(Cl)cc3Cl)C(=O)NC2=O)c2ccccc21
inhibition [1]: 3% | inhibition [2]: 0% | inhibition [3]: 0% | inhibition [4]: 3% | inhibition [5]: 0% | inhibition [6]: 0% | inhibition [7]: 8% | inhibition [8]: 0% | inhibition [9]: 0% | inhibition [10]: 5% | inhibition [11]: 8% | inhibition [12]: 5% | inhibition [13]: 3% | inhibition [14]: 2% | inhibition [15]: 0% | inhibition [16]: 11% | inhibition [17]: 3% | inhibition [18]: 1% | inhibition [19]: 21% | inhibition [20]: 1% | inhibition [21]: 0% | inhibition [22]: 0% | inhibition [23]: 0% | inhibition [24]: 0% | inhibition [25]: 0% | inhibition [26]: 0% | inhibition [27]: 0%

SMILES: Cc1ccccc1C(=O)c1ccc(Nc2ccc(Br)cc2N)cc1Cl
inhibition [1]: 0% | inhibition [2]: 0% | inhibition [3]: 0% | inhibition [4]: 0% | inhibition [5]: 0% | inhibition [6]: 0% | inhibition [7]: 0% | inhibition [8]: 0% | inhibition [9]: 0% | inhibition [10]: 4% | inhibition [11]: 0% | inhibition [12]: 0% | inhibition [13]: 12% | inhibition [14]: 0% | inhibition [15]: 0% | inhibition [16]: 0% | inhibition [17]: 0% | inhibition [18]: 0% | inhibition [19]: 0% | inhibition [20]: 0% | inhibition [21]: 0% | inhibition [22]: 0% | inhibition [23]: 0% | inhibition [24]: 0% | inhibition [25]: 0% | inhibition [26]: 0% | inhibition [27]: 0%

SMILES: O=C(NC(NC(=S)Nc1ccc(F)c([N+](=O)[O-])c1)C(Cl)(Cl)Cl)C(c1ccccc1)c1ccccc1 (configuration not stated)
inhibition [1]: 5% | inhibition [2]: 0% | inhibition [3]: 0% | inhibition [4]: 0% | inhibition [5]: 0% | inhibition [6]: 3% | inhibition [7]: 0% | inhibition [8]: 0% | inhibition [9]: 0% | inhibition [10]: 0% | inhibition [11]: 7% | inhibition [12]: 0% | inhibition [13]: 16% | inhibition [14]: 15% | inhibition [15]: 7% | inhibition [16]: 0% | inhibition [17]: 0% | inhibition [18]: 4% | inhibition [19]: 2% | inhibition [20]: 2% | inhibition [21]: 0% | inhibition [22]: 0% | inhibition [23]: 2% | inhibition [24]: 4% | inhibition [25]: 3% | inhibition [26]: 0% | inhibition [27]: 8%

SMILES: CN1CC[C@H](c2c(O)cc(O)c3c(=O)cc(-c4ccccc4Cl)oc23)[C@H](O)C1
inhibition [1]: 1% | inhibition [2]: 0% | inhibition [3]: 0% | inhibition [4]: 12% | inhibition [5]: 0% | inhibition [6]: 28% | inhibition [7]: 6% | inhibition [8]: 0% | inhibition [9]: 1% | inhibition [10]: 5% | inhibition [11]: 0% | inhibition [12]: 15% | inhibition [13]: 0% | inhibition [14]: 0% | inhibition [15]: 0% | inhibition [16]: 0% | inhibition [17]: 35% | inhibition [18]: 8% | inhibition [19]: 19% | inhibition [20]: 2% | inhibition [21]: 8% | inhibition [22]: 23% | inhibition [23]: 16% | inhibition [24]: 2% | inhibition [25]: 0% | inhibition [26]: 0% | inhibition [27]: 11%

SMILES: CN(C)CCCn1cc(C2=C(c3c[nH]c4ccccc34)C(=O)NC2=O)c2ccccc21
inhibition [1]: 5% | inhibition [2]: 0% | inhibition [3]: 37% | inhibition [4]: 2% | inhibition [5]: 0% | inhibition [6]: 0% | inhibition [7]: 34% | inhibition [8]: 0% | inhibition [9]: 5% | inhibition [10]: 26% | inhibition [11]: 34% | inhibition [12]: 52% | inhibition [13]: 37% | inhibition [14]: 11% | inhibition [15]: 77% | inhibition [16]: 35% | inhibition [17]: 69% | inhibition [18]: 10% | inhibition [19]: 40% | inhibition [20]: 59% | inhibition [21]: 33% | inhibition [22]: 30% | inhibition [23]: 39% | inhibition [24]: 32% | inhibition [25]: 0% | inhibition [26]: 2% | inhibition [27]: 29%

SMILES: COc1cc2ncn(-c3cc(OCc4ccccc4C(F)(F)F)c(C(N)=O)s3)c2cc1OC
inhibition [1]: 12% | inhibition [2]: 0% | inhibition [3]: 0% | inhibition [4]: 2% | inhibition [6]: 28% | inhibition [7]: 18% | inhibition [8]: 2% | inhibition [9]: 4% | inhibition [10]: 14% | inhibition [11]: 12% | inhibition [12]: 4% | inhibition [13]: 12% | inhibition [14]: 10% | inhibition [15]: 0% | inhibition [16]: 0% | inhibition [17]: 23% | inhibition [18]: 11% | inhibition [19]: 10% | inhibition [20]: 30% | inhibition [21]: 27% | inhibition [22]: 14% | inhibition [23]: 0% | inhibition [24]: 59% | inhibition [25]: 4% | inhibition [26]: 0% | inhibition [27]: 15%

Next, values leading:

inhibition [1]: 0% | inhibition [2]: 0% | inhibition [3]: 0% | inhibition [4]: 0% | inhibition [5]: 0% | inhibition [6]: 0% | inhibition [7]: 0% | inhibition [8]: 0% | inhibition [9]: 0% | inhibition [10]: 0% | inhibition [11]: 0% | inhibition [12]: 2% | inhibition [13]: 0% | inhibition [14]: 0% | inhibition [15]: 0% | inhibition [16]: 0% | inhibition [17]: 0% | inhibition [18]: 0% | inhibition [19]: 20% | inhibition [20]: 0% | inhibition [21]: 0% | inhibition [22]: 0% | inhibition [23]: 0% | inhibition [24]: 0% | inhibition [25]: 0% | inhibition [26]: 0% | inhibition [27]: 0%
SMILES: CC[C@@H](CO)Nc1nc(NCc2ccccc2)c2ncn(C(C)C)c2n1

inhibition [1]: 0% | inhibition [2]: 0% | inhibition [3]: 0% | inhibition [4]: 6% | inhibition [5]: 2% | inhibition [6]: 1% | inhibition [7]: 0% | inhibition [8]: 0% | inhibition [9]: 0% | inhibition [10]: 0% | inhibition [11]: 1% | inhibition [12]: 0% | inhibition [13]: 0% | inhibition [14]: 0% | inhibition [15]: 0% | inhibition [16]: 0% | inhibition [17]: 0% | inhibition [18]: 2% | inhibition [19]: 0% | inhibition [20]: 4% | inhibition [21]: 3% | inhibition [22]: 0% | inhibition [23]: 0% | inhibition [24]: 6% | inhibition [25]: 0% | inhibition [26]: 0% | inhibition [27]: 4%
SMILES: Brc1c(Br)c(Br)c2[nH]nnc2c1Br

inhibition [1]: 0% | inhibition [2]: 0% | inhibition [3]: 0% | inhibition [4]: 0% | inhibition [5]: 6% | inhibition [6]: 0% | inhibition [7]: 0% | inhibition [8]: 0% | inhibition [9]: 4% | inhibition [10]: 0% | inhibition [11]: 0% | inhibition [12]: 0% | inhibition [13]: 0% | inhibition [14]: 0% | inhibition [15]: 0% | inhibition [16]: 0% | inhibition [17]: 0% | inhibition [18]: 0% | inhibition [19]: 0% | inhibition [20]: 0% | inhibition [21]: 0% | inhibition [22]: 0% | inhibition [23]: 0% | inhibition [24]: 0% | inhibition [25]: 2% | inhibition [26]: 0% | inhibition [27]: 0%
SMILES: O=C1c2ccccc2-c2n[nH]c3cccc1c23
